Data on seven molecules can be found in US12139488B2, “Pyrido[3,2-d]pyrimidine compounds uses thereof for treating a proliferative disease” (Universite de Montreal, priority 2021, dated 2024).

The target of experiment [1] is ARAF (Homo sapiens (Human), UniProt P10398). Kind of experiment: ARAF kinase activity assay (AlphaLISA p-MEK 1/2 detection). Format: biochemical. How it is done:
Compound preparation: solid samples of each substances in 1 dram vials were suspended in DMSO (Fisher Scientific) at a stock concentration of 20 mM. Stocks were kept at −20° C. and protected from light. If solubility of the compound at 20 mM appeared to be an issue, the initial concentration of the DMSO stock was changed to 10 mM or 5 mM.
In vitro enzymatic reactions were used for evaluating compounds intrinsic activity against BRAF, CRAF and ARAF. For BRAF and CRAF, 0.375 nM of purified GST-tagged kinases (cat #B4062-10 UG and cat #R1656-10 UG respectively from Millipore Sigma) were incubated with 75 nM of kinase-dead MEK1 substrate (cat #40075; BPS Bioscience) in the presence of 10 μM of Ultrapure ATP (cat #V9102; Promega; part V915A) with and without the test compound in a buffer containing 50 mM HEPES pH 7.5, 10 mM MgCl2, 1 mM EDTA, 0.01% Brij-35 and 2 mM DTT. Separate reactions were performed with the MEK1 substrate and ATP as a blank control. ARAF, kinase reactions were rigorously the same with the exception that kinase concentration was raised to 3.75 nM (cat #1768-0000-1; Reaction Biology).
For compound treatment, 5 μL/well of test substance solution are placed in a 384-well proxyplate (Perkin Elmer) and mixed with 2× concentrated kinase reactions. The dilution series is selected so that nine concentrations cover a range from 100 nM to 0.01 nM. […] The final concentration of DMSO in the assay is set at 0.05%.
ARAF kinase reactions were carried out for a total of 2 hours at 30° C. and then stopped by addition of EDTA at a final concentration of 40 mM. Reactions were then detected using the AlphaLISA® SureFire® Ultra™ p-MEK 1/2 (Ser218/222) (PerkinElmer) kit. Reactions were performed with 5 μL of kinase reaction according to the manufacturer's specifications in 384-well proxyplates (Perkin Elmer) followed by overnight incubation of the AlphaLISA® reactions at room temperature in a humidified chamber. After completion of the detection reactions, the signals were recorded on a Synergy Neo2 plate reader (Biotek) equipped with AlphaLISA® filters. The effect of each compound dilution on the pMEK signal generated by ARAF reactions was expressed in % inhibition and calculated as follows. An internal 100% inhibition control (average of luminescence in kinase reactions comprising kinase dead MEK1 substrate alone) was included in each plate to measure of pMEK background and was subtracted from each data point. The average of DMSO (vehicle) controls (set as 0% inhibition) was also established and used to calculate % inhibition: % inhibition=100*(1−((pMEK signalcompound)/(pMEK signalDMSO)))
IC50 values were obtained by plotting the kinase inhibition values and fitting the dose-activity curves using a log(agonist) versus response-variable slope (four parameters) function using either GraphPadPrism (V7.0) or Dotmatics Screening Ultra platform. Standards included in the ARAF kinase assay were Belvarafenib (MedChem Express cat #HY-109080; CAS #1446113-23-0), LXH254 (MedChem Express cat #HY-112089; CAS #1800398-38-2) and BGB283 (cat #HY-18957; CAS #1446090-79-4).
(In Alpha technology, singlet oxygen from a donor bead excites a nearby acceptor bead.)

Experiment [2] has as its system pERK in HCT-116 cells (KRAS G13D). The experiment is described as follows: Phospho-ERK inhibition (AlphaLISA SureFire Ultra p-ERK 1/2), HCT116. Type of experiment: cell-based, human. Summed up: (§1)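 pERK1/2 (Thr202/Tyr204) AlphaLISA, 1 h cpd, 10 conc. 10 μM→0.33 nM, 0.5% DMSO, RPMI-1640 + 5% FBS. Trametinib = 100%, DMSO = 0%. IC50, 4-param fit.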
Experiment [3] has as its system pERK and pMEK in RAS-mutant HCT-116 cells. The experiment is described as follows: Immunoblot analysis of pERK and pMEK in HCT-116 cells. Format: cell-based, human. The following applies: 1 h treatment, FIG. 2. Here is the method:
For immunoblotting analysis, 500,000 HCT-116 cells were plated in 1 mL of complete RPMI-1640 growth medium in 24-well flat-bottomed transparent dishes (Costar). Cells were maintained overnight at 37° C. under 5% CO2 before treatment with compounds' dilution series for one hour.
Cells were then washed once in PBS and lized in 250 μL of Igepal Lysis Buffer (50 mM Tris-HCl pH 7.5, 150 mM NaCl, 1% Igepal-CA630, 1 mM EDTA, 10% Glycerol) supplemented with Leupeptin, Aprotinin, PMSF, phosphatase inhibitor cocktail (Sigma) and Na3VO4 at 4° C. for 15 minutes with gentle rocking. Cell extracts were then cleared by centrifugation at 20,000 g at 4° C. for 10 minutes. Cleared lysates were then transferred on ice in fresh tubes and then boiled in sample loading buffer (100 mM Tris-HCl pH 6.8, 4% SDS, 0.2% bromophenol blue, 20% glycerol, 200 mM p-mercaptoethanol) for 5 minutes prior to fractionation by SDS-PAGE and transfer to nitrocellulose membranes (PALL). […]

The target of experiment [4] is BRAF (Homo sapiens (Human), UniProt P15056). Kind of experiment: BRAF kinase activity assay (ADP-Glo). Type of experiment: biochemical. The following applies: read-out: Kinase IC50 (nM) BRAF. Summed up:
(§2)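 ADP-Glo luminescence assay of BRAF and CRAF kinase reactions with MEK1 substrate and ATP. Reactions ran 2 h at 30 °C with compound over nine concentrations from 100 nM to 0.01 nM, at 0.05% DMSO final. IC50 came from four-parameter variable-slope fits of % inhibition.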
Background: In ADP-Glo the light output rises with the ADP produced.

The target of experiment [5] is CRAF (Homo sapiens, UniProt P04049). The experiment is described as follows: CRAF kinase activity assay (ADP-Glo). Type of experiment: biochemical. The following applies: read-out: Kinase IC50 (nM) CRAF. In a few lines: as §2
CRAF, sequence (P04049 whole entry, looked up): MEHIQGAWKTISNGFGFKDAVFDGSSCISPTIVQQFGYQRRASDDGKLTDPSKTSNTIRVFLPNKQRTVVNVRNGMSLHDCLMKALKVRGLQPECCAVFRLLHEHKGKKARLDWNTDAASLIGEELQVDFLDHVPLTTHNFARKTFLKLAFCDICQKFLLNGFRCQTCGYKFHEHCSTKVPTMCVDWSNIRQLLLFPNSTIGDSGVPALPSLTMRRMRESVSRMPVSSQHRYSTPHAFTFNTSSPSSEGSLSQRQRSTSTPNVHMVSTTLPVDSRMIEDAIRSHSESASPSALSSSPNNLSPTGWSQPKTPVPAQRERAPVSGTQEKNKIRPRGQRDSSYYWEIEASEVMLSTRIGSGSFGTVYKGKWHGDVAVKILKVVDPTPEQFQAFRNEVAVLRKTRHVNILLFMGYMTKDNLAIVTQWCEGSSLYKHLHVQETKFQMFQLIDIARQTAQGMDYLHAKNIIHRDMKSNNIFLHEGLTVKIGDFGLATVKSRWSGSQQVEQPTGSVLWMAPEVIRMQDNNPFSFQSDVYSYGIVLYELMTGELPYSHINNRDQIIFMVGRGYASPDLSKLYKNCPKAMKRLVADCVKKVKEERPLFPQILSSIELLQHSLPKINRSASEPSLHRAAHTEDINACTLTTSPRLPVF
The subject of experiment [6] is pERK in SW480 cells (KRAS G12D). Kind of experiment: Phospho-ERK inhibition (AlphaLISA), SW480. Format: cell-based, human. In a few lines: as §1
The mark [7] stands for this setting: HCT116 cells, class symbol before the bracket.
[8] abbreviates: SW480 cells, class symbol before the bracket.

Molecules are shown by their SMILES.

BRAF, sequence (P15056 whole entry): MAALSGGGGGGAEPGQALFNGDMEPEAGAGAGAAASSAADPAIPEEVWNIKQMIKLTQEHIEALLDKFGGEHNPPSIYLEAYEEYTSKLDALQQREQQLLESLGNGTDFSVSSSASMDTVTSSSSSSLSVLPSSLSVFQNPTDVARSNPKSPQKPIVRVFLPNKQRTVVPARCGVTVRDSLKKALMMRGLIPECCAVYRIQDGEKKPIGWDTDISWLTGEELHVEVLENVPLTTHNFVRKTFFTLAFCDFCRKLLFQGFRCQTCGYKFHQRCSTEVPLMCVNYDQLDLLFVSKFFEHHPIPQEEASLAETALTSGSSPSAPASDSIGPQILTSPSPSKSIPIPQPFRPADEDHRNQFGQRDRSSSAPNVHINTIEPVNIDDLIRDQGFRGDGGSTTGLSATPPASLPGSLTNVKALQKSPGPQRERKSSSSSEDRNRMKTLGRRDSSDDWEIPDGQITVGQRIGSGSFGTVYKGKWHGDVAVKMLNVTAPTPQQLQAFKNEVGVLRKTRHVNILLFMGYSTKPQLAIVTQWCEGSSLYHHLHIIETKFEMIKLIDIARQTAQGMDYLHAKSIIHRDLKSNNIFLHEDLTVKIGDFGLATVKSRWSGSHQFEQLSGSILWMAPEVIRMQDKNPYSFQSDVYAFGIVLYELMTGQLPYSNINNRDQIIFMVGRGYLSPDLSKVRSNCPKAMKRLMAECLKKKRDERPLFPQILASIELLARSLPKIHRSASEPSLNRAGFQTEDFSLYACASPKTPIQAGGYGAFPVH
ARAF, sequence (P10398 whole entry): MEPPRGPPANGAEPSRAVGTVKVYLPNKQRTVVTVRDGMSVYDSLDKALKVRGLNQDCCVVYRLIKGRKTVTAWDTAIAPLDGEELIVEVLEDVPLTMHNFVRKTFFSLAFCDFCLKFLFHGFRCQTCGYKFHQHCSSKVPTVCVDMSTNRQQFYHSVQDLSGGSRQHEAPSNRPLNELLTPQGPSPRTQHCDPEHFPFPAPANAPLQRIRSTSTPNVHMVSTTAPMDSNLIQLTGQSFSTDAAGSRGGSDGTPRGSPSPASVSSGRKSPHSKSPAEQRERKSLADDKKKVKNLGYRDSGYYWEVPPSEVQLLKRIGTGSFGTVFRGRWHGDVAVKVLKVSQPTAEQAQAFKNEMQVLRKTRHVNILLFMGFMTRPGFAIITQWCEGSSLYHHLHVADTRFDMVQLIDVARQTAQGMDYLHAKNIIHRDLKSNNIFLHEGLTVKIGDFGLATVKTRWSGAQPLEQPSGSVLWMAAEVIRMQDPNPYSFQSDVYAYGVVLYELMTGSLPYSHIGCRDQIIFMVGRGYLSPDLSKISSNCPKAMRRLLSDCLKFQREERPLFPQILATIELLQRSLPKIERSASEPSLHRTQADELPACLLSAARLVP

As for `O=C1CCc2c(Oc3ccc4c(c3)[C@@H]3[C@H](O4)[C@H]3c3nc4ccc(C(F)(F)F)cc4[nH]3)ccnc2N1` [BGB283, reference compound], the 50% inhibitory concentration (IC50) in experiment [1] was greater than 10 nM.

Regarding `Cc1nc(N)ccc1S(=O)(=O)Nc1ccc(F)c(Nc2ncnc3ccc(-n4cnc5c(N)cccc54)nc23)c1F` [Example 353], the IC50 was in the range of 1 to 10 nM in experiment [1] and 1000 to 10000 nM in experiment [2] (HCT116 cells, class symbol).

As for `CCCS(=O)(=O)Nc1ccc(F)c(C(=O)c2c[nH]c3ncc(Cl)cc23)c1F` [PLX4720, reference compound], the “YMIN of pERK IC50 dose response curve (paradoxical induction of pERK signaling)” value in experiment [2] (RAS-mutant HCT116 cells, FIG. 1) is roughly −600%. Also, in experiment [3], the “paradoxical induction of pERK or pMEK signaling (immunoblot)” value is “induces the pathway”.

Consider `Cc1ccc(NC(=O)c2ccnc(C(F)(F)F)c2)cc1-c1cc(OCCO)nc(N2CCOCC2)c1` [LXH254, reference compound], for which the IC50 in experiment [1] is greater than 10 nM.

On to `Nc1cccc2c1nnn2-c1ccc2ncnc(Nc3c(F)ccc(NS(=O)(=O)c4cccc(Cl)c4Cl)c3F)c2n1` [Example 100], for which the IC50 is less than 1 nM in experiment [4], less than 10 nM in experiment [5], less than 500 nM in experiment [2] (setting [7]) and less than 500 nM in experiment [6] (setting [8]). Also, the “HCT116 pERK Ymin %” value in experiment [2] (HCT116 cells, Ymin in brackets) was −16%. Further, the “SW480 pERK Ymin %” value in experiment [6] (SW480 cells, Ymin in brackets) came out at 16%.

For the molecule `COc1ccc(S(=O)(=O)Nc2ccc(F)c(Nc3ncnc4ccc(-n5cnc6ccccc65)nc34)c2F)cc1` [Example 1], the IC50 is 1 to 10 nM in experiment [4]; 10 to 50 nM in experiment [5]; 1000 to 10000 nM in experiment [2] (HCT116 cells, 1 h treatment); 1000 to 10000 nM in experiment [6] (SW480 cells, 1 h treatment). In addition, in experiment [2] (lowest % inhibition value of the IC50 curve, HCT116), the “HCT116 pERK Ymin %” value was found to be 8%. Also, the “SW480 pERK Ymin %” value in experiment [6] (lowest % inhibition value of the IC50 curve, SW480) was 4%.

Take `O=S(=O)(Nc1ccc(F)c(Nc2ncnc3ccc(-c4cncs4)nc23)c1F)c1ccccc1Cl` [Ex 67]: the IC50 was 1 to 10 nM in experiment [4], 10 to 50 nM in experiment [5], 500 to 1000 nM in experiment [2] (setting [7]) and 500 to 1000 nM in experiment [6] (setting [8]). In experiment [2] (HCT116 cells, Ymin in brackets), the “HCT116 pERK Ymin %” value was −3.6%. Further, the “SW480 pERK Ymin %” value in experiment [6] (SW480 cells, Ymin in brackets) was −1.3%.

By IC50 is commonly meant the concentration that inhibits the measured activity by half.
